Here are results for one compound from patent US9908896B2, “P38 and JNK MAPK inhibitors for the treatment and prophylaxis of degenerative diseases of the nervous system” (ALLINKY BIOPHARMA, priority 2014, dated 2018).

Series [1] concerns Aβ25-35-induced Aβ1-42 accumulation in the rat hippocampus. As to the kind of experiment: Aβ1-42 content in hippocampus by ELISA after i.c.v. Aβ25-35 injection. In kind it is in vivo, male Sprague Dawley rats. The conditions noted are these: 10 mg/kg i.v. once a day; after Aβ25-35 injection; vs Sc.Aβ/Veh group. As for the experimental part: The compound efficacy was evaluated 7 days after the peptide administration, on: • the attenuation of the Aβ25-35-induced learning deficits (recognition long-term memory: novel object recognition); • the attenuation of the Aβ25-35-induced Aβ^1-42 accumulation in the rat hippocampus.
One administration procedure was examined: the compound 1 (10 mg/kg) administered intraveinously (i.v.) once a day during 9 days.
On day 10, all animals were sacrificed, the frontal cortex and hippocampi dissected out. One hippocampus was used for the ELISA analyses of Aβ1-42 content.
Samples were prepared from one hippocampus tissues of each rat per group and homogenized in an extraction buffer specific to the commercial ELISA assay kits.
After thawing, the hippocampus were homogenized in 50 mM Tris-150 mM NaCl buffer, pH 7.5, and sonicated for 20 s. After centrifugation (16,100 g for 15 min, 4° C.), supernatants were used for Aβ1-42 ELISA assay according to the manufacturer instructions. Absorbance was read at 450 nm and sample concentration was calculated using the standard curve. Results will be expressed in pg of Aβ1-42 per mg of tissue. […]
All values were expressed as mean±S.E.M. Statistical analyses were performed on the different conditions using one-way ANOVA (F value), followed by the Dunnett's post-hoc multiple comparison test. p<0.05 was considered as statistically significant.
For orientation: In an ELISA, binding on a coated surface is turned into a signal by an enzyme label.

The nature of series [2]: Single dose i.p. and i.v. blood brain barrier permeability study, plasma and brain concentration (LC-MS/MS). In kind it is in vivo, male Sprague Dawley rat. As to conditions: for concentration at 2 h: male, Sprague Dawley, 10 mg/kg. As for the experimental part: The objective of these tests was to determine the plasma and brain concentration of the compound 1 in male Sprague Dawley rat after single intraperioneal (i.p.) and intravenous (i.v.) administration.
The compound 1 was administered intravenously (i.v.) through tail vein and intraperitoneally (i.p.) in abdominal cavity. After dosing of each animal, the time was documented.
Formulation vehicle: 20 Vol.-% Cremophore, 10 Vol.-% ethanol, 70 Vol.-% normal saline
Bioanalysis was performed using fit-for-purpose LC-MS/MS method for the quantification of test compounds in plasma samples and brain homogenate. The method was validated for calibration curve consisted of nine non-zero calibration standards along with a double blank and zero standard samples. Study samples were analysed along with two sets of quality control samples (6 QC samples; low, medium and high QC sample).
Sample Process: Blood samples were placed on ice prior to centrifugation and centrifuged within 15 min at 5000 rpm for 10 min at 4° C.
Immediately after blood withdrawal, in situ brain perfusion was performed using chilled saline. The chest of the rat was exposed, the abdominal aorta was clamped and both jugular veins were cut. Intra-cardial perfusion was performed through an insertion in the left ventricle. Perfusion of each rat was followed by exanguination for brain collection. The skin over the cranium was incised and deflected. The head was flexed and a cut was made through the muscles and the spinal cord at the junction of the foreman magnum and atlas vertebra. A circumferential incision was carefully made in the cranium using a bone cutter. The roof of the cranium was lifted off to expose the meninges and brain. The meninges were removed carefully. Then holding the head with the nose pointing upward, the anterior part of the brain was lifted to separate the brain. Separated brain was immediately weighed and frozen at −80±10° C. until homogenization.
Brain samples were thawed on ice. An appropriate volume of ice cold homogenizing media (Normal Saline) was added. Brain samples were homogenized on ice with the Polytron® homogenizer and volume was adjusted with homogenizing media to achieve 1 g of brain per 5 ml of homogenate. After homogenization, the brain homogenate were immediately frozen at −80° C. until analysis.

Series [3] relates to Aβ25-35-induced learning deficits. The experiment in a line: Novel object recognition after i.c.v. Aβ25-35 injection. In kind it is in vivo, male Sprague Dawley rats. The conditions noted are these: 10 mg/kg i.v. once a day. As for the experimental part: The purpose of the study was to determine whether the test compound 1 can alleviate the pathology produced in rats by the acute intracerebroventricular (i.c.v) injection of an oligomeric Aβ25-35 peptide preparation. The compound efficacy was evaluated 7 days after the peptide administration, on: • the attenuation of the Aβ25-35-induced learning deficits (recognition long-term memory: novel object recognition); • the attenuation of the Aβ25-35-induced Aβ^1-42 accumulation in the rat hippocampus. One administration procedure was examined: the compound 1 (10 mg/kg) administered intraveinously (i.v.) once a day during 9 days. […] On day 8 and 9, the recognition long-term memory of the animals was assessed using the novel object recognition (NOR) procedure. […] Each rat was placed in the open-field and the exploratory activity recorded during a 10-min duration session. The activity was analyzed using the Nosetrack® protocol (Viewpoint), in terms of number of contact with objects and duration of contacts. […] Each rat was placed again in the open-field and the exploratory activity recorded during a 10-min duration session. The activity was analyzed similarly. The preferential exploration index was calculated as the ratio of the number (or duration) of contacts with the object in position #1 over the total number for duration) of contacts with the two objects. […]

Where “and” joins values, the source holds several entries; their conditions need not be identical. Equal values may be shown once. Read-outs that look alike come from different tables or passages of the source.

Regarding `CCCOc1ccc(Nc2nc3nonc3nc2N2CCC(Oc3ccc(Cl)cc3)CC2)cc1` [Comp 1], the “Aβ1-42 level in the hippocampus” value in series [1] is given as “decreased the Aβ1-42 level increase”. For the same compound, the “Concentration in rat brain homogenate i.p. at 2 h, individual rats” value in series [2] (10 mg/kg i.p., rats R1, R2, R3) was 31.30 ng/g and 44.55 ng/g. Further, in series [2] (10 mg/kg i.p., rats R1, R2, R3), the “Concentration in rat plasma i.p. at 2 h, individual rats” value was 63.64 ng/mL and 87.75 ng/mL. Also, the “Concentration in rat brain homogenate i.v. at 2 h, individual rats” value in series [2] (10 mg/kg i.v., rats R1, R2, R3) was 394.80 ng/g and 439.45 ng/g. In series [2] (10 mg/kg i.v., rats R1, R2, R3), the “Concentration in rat plasma i.v. at 2 h, individual rats” value was 293.38 ng/mL and 156.26 ng/mL. In addition, the concentration at 2 h came to 41.6 ng/g in series [2] (rat, brain homogenate, intraperitoneal, 10 mg/kg i.p., mean of 3 rats, read-out: Concentration in rat brain homogenate i.p. at 2 h, Mean); 49.1 ng/g in series [2] (rat, brain homogenate, intraperitoneal, 10 mg/kg i.p., rats R1, R2, R3, read-out: Concentration in rat brain homogenate i.p. at 2 h, individual rats); 386 ng/g in series [2] (rat, brain homogenate, intravenous, 10 mg/kg i.v., mean of 3 rats, read-out: Concentration in rat brain homogenate i.v. at 2 h, Mean); 323 ng/g in series [2] (rat, brain homogenate, intravenous, 10 mg/kg i.v., rats R1, R2, R3, read-out: Concentration in rat brain homogenate i.v. at 2 h, individual rats); 91.5 ng/mL in series [2] (rat, plasma, intraperitoneal, 10 mg/kg i.p., mean of 3 rats, read-out: Concentration in rat plasma i.p. at 2 h, Mean); 123 ng/mL in series [2] (rat, plasma, intraperitoneal, 10 mg/kg i.p., rats R1, R2, R3, read-out: Concentration in rat plasma i.p. at 2 h, individual rats). In addition, the concentration at 2 h in series [2] (rat, plasma, intravenous, 10 mg/kg i.v., mean of 3 rats, read-out: Concentration in rat plasma i.v. at 2 h, Mean) stood at 204 ng/mL; in series [2] (rat, plasma, intravenous, 10 mg/kg i.v., rats R1, R2, R3, read-out: Concentration in rat plasma i.v. at 2 h, individual rats) it was 163 ng/mL. Further, in series [2] (rat, 10 mg/kg i.v. or i.p., 2 h), the “blood-brain permeability (in words)” value is on record as “excellent blood-brain permeability”. The “Object preference in session 2 (contacts and duration of contacts)” value in series [3] (day 8, two identical objects, vs no preference level) is on record as “higher than 50%”. The “Novel object preference in session 3 (number and duration of contacts)” value in series [3] (day 9, vs 50% level) is “alleviated the impairments”.
